From article PMC8533333, “Melatonin Analogues Potently Inhibit MAO-B and Protect PC12 Cells against Oxidative Stress” (Antioxidants, 2021)
pIC50: −log10 of the molar value.

Tests used:
[1] = biological target: T1, Human recombinant MAO-A (hMAO-A) (Homo sapiens, UniProt P21397); assay: MAO-A enzyme assay (Amplex Red), selectivity; type: biochemical
T1 construct: purchased Sigma Aldrich; host or cells: insect cells
T1 sequence (P21397 1-527): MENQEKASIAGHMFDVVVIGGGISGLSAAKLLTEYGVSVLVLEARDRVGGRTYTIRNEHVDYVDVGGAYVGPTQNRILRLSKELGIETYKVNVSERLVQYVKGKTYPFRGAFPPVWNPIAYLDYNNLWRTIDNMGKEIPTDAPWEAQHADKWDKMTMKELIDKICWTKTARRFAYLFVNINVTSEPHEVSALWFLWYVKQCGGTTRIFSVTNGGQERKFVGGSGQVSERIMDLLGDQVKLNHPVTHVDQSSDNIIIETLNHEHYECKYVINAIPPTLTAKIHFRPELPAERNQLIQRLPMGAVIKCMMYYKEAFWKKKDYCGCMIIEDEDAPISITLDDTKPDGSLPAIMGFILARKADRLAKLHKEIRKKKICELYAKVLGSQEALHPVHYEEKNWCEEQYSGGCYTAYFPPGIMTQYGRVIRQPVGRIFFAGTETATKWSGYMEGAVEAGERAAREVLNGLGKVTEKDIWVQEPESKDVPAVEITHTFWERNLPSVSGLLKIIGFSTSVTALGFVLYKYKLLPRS
Description: Biological evaluation of the synthesized melatonin derivatives over both MAO-A and MAO-B was performed as reported previously. A detailed description of the protocol is in the Supplementary Materials.
6. Materials and methods of monoamine oxidase (MAO) enzyme assay
The inhibitory activity of MAO-A, B enzyme of the compounds was evaluated based on previously described method. The MAO activity was measured in relative fluorescence units (RFU) evoked by peroxidase-catalyzed oxidation of Amplex Red® to resorufin, in which H2O2 generated by MAO reaction was used as the […]. Human recombinant MAO-A (hMAO-A) and MAO-B (hMAO-B) enzyme expressed in insect cells were obtained from Sigma Aldrich. The 2 μL of test compound in DMSO (final concentration: 1 nM – 10 μM) was treated with 98 μL of hMAO enzyme solution in 50 mM sodium phosphate buffer (pH 7.4, final protein amounts: ~1.25 μg protein/well for MAO-A and ~2.5 μg protein/well for MAO -B) on 96-well black plate and incubated for 15 min at 37 °C. Then 100 μL of reaction working solution which is mixed solution of 400 μM Amplex Red® (Cayman, final concentration: 200 μM), 2 U/mL horseradish peroxidase ( Sigma-Aldrich, final concentration: 1 U/mL) and 2 mM substrate ( p-tyramine for MAO -A, benzylamine for MAO -B, Sigma-Aldrich, final concentration: 1 mM) in 50 mM sodium phosphate buffer (pH 7.4) were added and incubated for 20 min at 37 °C in the dark. The fluorescent intensity was quantified using a microplate reader (SpectraMax®i3, Molecular Device) with an excitation at 545 nm and an emission at 590 nm. The 50% inhibitory concentrations (IC50) of compounds were determined as the mean ± S.E.M. in triplicate from the dose-response inhibition curves using SigmaPlot® 13.0.
monoamine oxidase inhibitors. Bioorganic & medicinal chemistry 2015, 23, 6486-6496,

[2] = tested on: LPO in rat brain homogenates; assay: Lipid peroxidation (LPO) induced by Fe2+ and L-ascorbic acid in rat forebrain homogenates; type: biochemical; details: 100 μM; Fe2+ 10 µM and L-ascorbic acid 100 µM
Description: The effects of the investigated compounds on the LPO levels in rat forebrain homogenates were evaluated as previously described. Sprague–Dawley (SD) rats were obtained from Daehan Biolink (Chungbuk, Korea) and maintained in the animal facility with controlled temperature (22 ± 2 °C) and relative humidity (40–60%). All the experimental steps and protocols of the animal experiments were approved by the Institutional Animal Ethical Committee of Dongguk University (Approval Number: IACUC-2019-001-2). To initiate LPO reaction, 3–4 mg protein/mL diluent of SD rat forebrain homogenates in 20 mM Tris-HCl buffer (pH 7.4) and several concentrations of the tested compounds dissolved in DMSO were added to a reaction mixture with 10 µM Fe^2+ and 100 µM L-ascorbic acid and incubated for 60 min at 37 °C. After halting the reaction by adding 28% w/v trichloroacetic acid and 1% w/v TBA in succession, the solution was heated for 15 min at 100 °C, which was followed by centrifugation at 3000 rpm for 10 min at 4 °C to separate the precipitates. […] The percentage of inhibition was calculated by the following formula:Inhibition (%) = 100 × (1 − Abssample/Abscontrol) (Abscontrol, the absorbance of control without tested compounds; Abssample, the absorbance of sample with tested compounds). […]

HO-1 = HO-1 protein expression in PC12 cells (Western blotting); type: cell-based, rat; details: for HO-1 protein expression over time: 10 μM, 1 to 12 h, significant at 6–12 h; for increase in HO-1 expression: 30 μM, 12 h
Description: PC12 cells were seeded on 35 mm dishes at a density of 2 × 10^6 cells/dish and kept at 37 °C in humidified incubator for at least 24 h. Cells were treated with a series of concentrations of the tested compounds for 12 h or with the tested compounds (10 μM) for the indicated time points. Control cells were treated with serum-free media containing 0.3% DMSO instead. Total cell lysates were prepared according to the methods described previously, and stored at −20 °C until used. To evaluate the effects of the tested compounds on the nuclear translocation of Nrf2, nuclear fraction was separated from cytosolic fraction using NE-PER Nuclear and Cytoplasmic Extraction Reagents (Rockford, IL, USA), following the manufacturer’s directions. The protein concentrations were assessed using a BioRad DC protein assay kit (BioRad, Hercules, CA, USA). Equal amounts of proteins (20 µg) were resolved on 12% or 8% gels via sodium dodecyl sulfate-polyacrylamide gel electrophoresis and electrophoretically transferred onto nitrocellulose membrane (Whatman, Clifton, NJ, USA). Subsequently, immunoblotting was performed using anti-HO-1 or anti-Nrf2 antibodies, respectively, according to the procedures reported previously. Beta-actin, a highly conserved cytoskeletal protein, was used as a loading control of cell lysates to normalize the level of HO-1, while nuclear protein lamin B was used as a nuclear loading control to normalize the level of Nrf2 in the nuclear fraction. Finally, the immunoreactive bands corresponding to HO-1 or Nrf2 proteins were visualized using Clarity^TM Western ECL substrate (Bio-Rad, Hercules, CA, USA) using the BioRad ChemiDoc XRS imaging system (Bio-Rad, Hercules, CA, USA).

Row | pIC50 [1] | Compound | inhibition of lipid peroxide formation (LPO) [2] | HO-1 protein expression over time (HO-1) | increase in HO-1 expression (HO-1)
1 | < 4.00 | O=C(Nc1ccc2[nH]ccc2c1)c1cccc(Cl)c1 [3n, 3-Chloro-N-(1H-indol-5-yl)benzamide] | 23.5 ± 1.7% | time-dependent increases | 1.6 fold
2 | < 4.00 | O=C(Nc1ccc2[nH]ccc2c1)c1cccc(Br)c1 [3r, 3-Bromo-N-(1H-indol-5-yl)benzamide] | 44.4 ± 2.2% | time-dependent increases | 1.7 fold
